In ChEMBL document CHEMBL1201862, “PubChem BioAssay data set” (2004):
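Test compounds were applied to cells in 96-well plates for 48 hours at 5 doses. GI50 is the concentration that inhibits growth by half.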 Calls of active or inactive are those of the source. No stated cut-off is given here; in the data, active = GI50 up to about 1.1 µM and inactive = higher.

What was measured:
Assay in all cases: DTP human tumour cell line panel, 48 h
IGROV-1 = system: IGROV-1
OVCAR-3 = system: OVCAR-3
EKVX = system: EKVX
SK-MEL-5 = system: SK-MEL-5
ACHN = system: ACHN
Malme-3M = system: Malme-3M
NCI-H23 = system: NCI-H23
MDA-MB-231 = system: MDA-MB-231
Hs-578T = system: Hs-578T
A498 = system: A498
KM12 = system: KM12
SNB-19 = system: SNB-19
OVCAR-5 = system: OVCAR-5
SF-268 = system: SF-268
SR = system: SR
HCT-116 = system: HCT-116
786-0 = system: 786-0
HCT-15 = system: HCT-15
CAKI-1 = system: CAKI-1
DU-145 = system: DU-145
SK-MEL-2 = system: SK-MEL-2
PC-3 = system: PC-3
HOP-92 = system: HOP-92
MOLT-4 = system: MOLT-4
NCI-H226 = system: NCI-H226
HT-29 = system: HT-29
SW-620 = system: SW-620
K562 = system: K562
HOP-62 = system: HOP-62
SN12C = system: SN12C
CCRF-CEM = system: CCRF-CEM
UO-31 = system: UO-31
MCF7 = system: MCF7
SF-295 = system: SF-295
UACC-62 = system: UACC-62
TK-10 = system: TK-10
OVCAR-4 = system: OVCAR-4
SK-OV-3 = system: SK-OV-3
COLO 205 = system: COLO 205
SK-MEL-28 = system: SK-MEL-28
MDA-MB-435 = system: MDA-MB-435
RXF 393 = system: RXF 393
HCC 2998 = system: HCC 2998
LOX IMVI = system: LOX IMVI
U-251 = system: U-251
HL-60 = system: HL-60
NCI-H460 = system: NCI-H460
NCI-H522 = system: NCI-H522
BT-549 = system: BT-549
RPMI-8226 = system: RPMI-8226
UACC-257 = system: UACC-257
SF-539 = system: SF-539
OVCAR-8 = system: OVCAR-8
MDA-N = system: MDA-N
M14 = system: M14
SNB-75 = system: SNB-75
A549 = system: A549

## Fc1ccc(Oc2nc3ccccc3nc2-c2ccccc2)cc1
IGROV-1
  GI50: > 100 µM (inactive)
OVCAR-3
  GI50: > 100 µM (inactive)
EKVX
  GI50: > 100 µM (inactive)
SK-MEL-5
  GI50: > 100 µM (inactive)
ACHN
  GI50: > 100 µM (inactive)
Malme-3M
  GI50: > 100 µM (inactive)
NCI-H23
  GI50: 42.5 µM (inactive)
MDA-MB-231
  GI50: > 100 µM (inactive)
Hs-578T
  GI50: 94.4 µM (inactive)
A498
  GI50: > 100 µM (inactive)
KM12
  GI50: > 100 µM (inactive)
SNB-19
  GI50: > 100 µM (inactive)
OVCAR-5
  GI50: > 100 µM (inactive)
SF-268
  GI50: > 100 µM (inactive)
SR
  GI50: 44.6 µM (inactive)
HCT-116
  GI50: > 100 µM (inactive)
786-0
  GI50: 80 µM (inactive)
HCT-15
  GI50: > 100 µM
CAKI-1
  GI50: > 100 µM (inactive)
DU-145
  GI50: > 100 µM (inactive)
SK-MEL-2
  GI50: > 100 µM (inactive)
PC-3
  GI50: > 100 µM (inactive)
HOP-92
  GI50: 76.9 µM (inactive)
MOLT-4
  GI50: > 100 µM (inactive)
NCI-H226
  GI50: > 100 µM (inactive)
HT-29
  GI50: > 100 µM (inactive)
SW-620
  GI50: > 100 µM (inactive)
K562
  GI50: > 100 µM (inactive)
HOP-62
  GI50: 88.9 µM (inactive)
SN12C
  GI50: > 100 µM (inactive)
CCRF-CEM
  GI50: > 100 µM (inactive)
UO-31
  GI50: > 100 µM (inactive)
MCF7
  GI50: > 100 µM (inactive)
SF-295
  GI50: > 100 µM (inactive)
UACC-62
  GI50: > 100 µM (inactive)
TK-10
  GI50: > 100 µM (inactive)
OVCAR-4
  GI50: 36.5 µM (inactive)
SK-OV-3
  GI50: > 100 µM (inactive)
COLO 205
  GI50: > 100 µM (inactive)
SK-MEL-28
  GI50: > 100 µM (inactive)
MDA-MB-435
  GI50: > 100 µM (inactive)
RXF 393
  GI50: 37.2 µM (inactive)
HCC 2998
  GI50: > 100 µM (inactive)
LOX IMVI
  GI50: > 100 µM (inactive)
U-251
  GI50: 50.5 µM (inactive)
HL-60
  GI50: 13.9 µM (inactive)
NCI-H460
  GI50: > 100 µM (inactive)
NCI-H522
  GI50: 71.8 µM (inactive)
BT-549
  GI50: 95.3 µM (inactive)
RPMI-8226
  GI50: 81.7 µM (inactive)
UACC-257
  GI50: > 100 µM (inactive)

## O=C1CN(c2cccc(Cl)c2)C(=O)CN1NCNN1CC(=O)N(c2cccc(Cl)c2)CC1=O
IGROV-1
  GI50: > 100 µM (inactive)
OVCAR-3
  GI50: > 100 µM (inactive)
EKVX
  GI50: > 100 µM (inactive)
SK-MEL-5
  GI50: > 100 µM (inactive)
ACHN
  GI50: > 100 µM (inactive)
Malme-3M
  GI50: > 100 µM (inactive)
NCI-H23
  GI50: > 100 µM (inactive)
Hs-578T
  GI50: > 100 µM (inactive)
A498
  GI50: > 100 µM (inactive)
KM12
  GI50: > 100 µM (inactive)
SNB-19
  GI50: > 100 µM (inactive)
OVCAR-5
  GI50: > 100 µM (inactive)
SF-268
  GI50: > 100 µM (inactive)
SR
  GI50: > 100 µM (inactive)
HCT-116
  GI50: > 100 µM (inactive)
786-0
  GI50: > 100 µM (inactive)
HCT-15
  GI50: > 100 µM
CAKI-1
  GI50: > 100 µM (inactive)
SF-539
  GI50: > 100 µM (inactive)
DU-145
  GI50: > 100 µM (inactive)
PC-3
  GI50: > 100 µM (inactive)
HOP-92
  GI50: > 100 µM (inactive)
MOLT-4
  GI50: > 100 µM (inactive)
HT-29
  GI50: > 100 µM (inactive)
SW-620
  GI50: > 100 µM (inactive)
HOP-62
  GI50: > 100 µM (inactive)
SN12C
  GI50: > 100 µM (inactive)
CCRF-CEM
  GI50: > 100 µM (inactive)
OVCAR-8
  GI50: > 100 µM (inactive)
UO-31
  GI50: > 100 µM (inactive)
MCF7
  GI50: > 100 µM (inactive)
MDA-N
  GI50: > 100 µM (inactive)
SF-295
  GI50: > 100 µM (inactive)
UACC-62
  GI50: > 100 µM (inactive)
TK-10
  GI50: > 100 µM (inactive)
M14
  GI50: > 100 µM (inactive)
OVCAR-4
  GI50: > 100 µM (inactive)
SNB-75
  GI50: 38.3 µM (inactive)
SK-OV-3
  GI50: > 100 µM (inactive)
COLO 205
  GI50: > 100 µM (inactive)
A549
  GI50: > 100 µM (inactive)
SK-MEL-28
  GI50: > 100 µM (inactive)
MDA-MB-435
  GI50: > 100 µM (inactive)
RXF 393
  GI50: > 100 µM (inactive)
HCC 2998
  GI50: > 100 µM (inactive)
U-251
  GI50: > 100 µM (inactive)
HL-60
  GI50: > 100 µM (inactive)
NCI-H460
  GI50: > 100 µM (inactive)
NCI-H522
  GI50: > 100 µM (inactive)
BT-549
  GI50: > 100 µM (inactive)
RPMI-8226
  GI50: > 100 µM (inactive)
UACC-257
  GI50: > 100 µM (inactive)
